From a melting point compilation (Tetko et al.; mined from patent text by program, amines drawn as free bases though some values may be those of a salt)

Row | SMILES | melting point [°C]
1 | CNCCCN(C)c1ccc2c(C(=O)NCC34CC5CC(CC(C5)C3)C4)c(Cl)ccc2n1 | 195 to 200
2 | COc1cc2cc(CC(C)C)sc2c(Cl)c1Cl | 40 to 41
3 | CN(C)n1c(C(F)(F)F)n[nH]c1=O | 138
4 | O=S1(=O)c2cccc3cccc(c23)N1CCN1CC=C(c2c[nH]c3ccccc23)CC1 | 208
5 | CN(C)C=NS(=O)(=O)CCC(C)(C)CC#N | 53 to 54
6 | COc1cccc2c(Cl)nc(C)nc12 | 101 to 102
7 | N#CCC(C#N)NNc1ccccc1 (stereo not drawn) | 97 to 98
8 | CCCS(=O)(=O)n1ccc2ccc(N=C3NCCN3)cc21 | 213
9 | Nc1ncc(-c2cc(Cl)c([N+](=O)[O-])c(Cl)c2Cl)c(N)n1 | 293 to 295
10 | CSc1nc(Cl)cc(P(C)(C)=O)n1 | 172 to 182
11 | CCn1cc(C(=O)O)c(=O)c2cc(F)c(F)c(C)c21 | 219 to 221
12 | NN1CC1c1ccccc1 (stereo not drawn) | 60
13 | CC1NC(c2ccc(Cl)cc2)=NO1 (stereo not drawn) | 110 to 112
14 | CCOC(=O)NN=Cc1c[nH]c(COC)n1 | 186 to 190
15 | CC(C)[C@H](NC(=O)OCc1ccccc1)C(=O)OCc1nc2c(N)nc3ccccc3c2n1CCCCNS(C)(=O)=O | 99 to 100
16 | O=S(=S)(OC1O[C@H](COCc2ccccc2)[C@@H](OCc2ccccc2)[C@H](OCc2ccccc2)[C@H]1OCc1ccccc1)c1ccccc1 (stereo partly drawn) | 106 to 108
17 | CCC(CC)n1nc2c(C(F)(F)F)cccc2c1-c1ccc(OC)cc1OC | 138 to 139
18 | CC(C)Oc1nsc(N)c1C#N | 146 to 148

Row | SMILES | melting point [°C]
19 | CC(=O)Oc1c(C2CCN(CCCCNC(=O)c3ccc(NC(=O)c4ccc(Cl)cc4)cc3)CC2)ccc2c1CCCC2 | 254
20 | Cc1ccc(C(NC(=O)[C@H](CCC(=O)O)NC(=O)c2cc3ccccc3[nH]2)c2ccc(C)cc2)cc1 | > 260
21 | O=c1c(I)c(OCc2ccc(F)cc2F)ccn1Cc1cccc(F)c1 | 164 to 167
22 | CCOC(=O)CSc1nc(Cl)cc(Nc2ccc(OC)cc2)n1 | 96 to 97.5
23 | COc1ccc(-n2c(=O)n(O)c(=O)c3cc(F)c(N4CCCC4)cc32)cc1 | 224 to 226
24 | Cc1cc2c(cc1N)C(C)(C)CCC2(C)C | 94 to 95
25 | Cc1c(C)c(N(C)C(=O)CC(C)(C)C)c(C)c2c1OCC2c1ccc(C(C)C)cc1 (stereo not drawn) | 80 to 82
26 | O=C(NC12CC3CC(CC(C3)C1)C2)c1cccc2c1OCCO2 | 137
27 | CCC1(CC)OC(=O)N(CCC(C)(C)NC[C@H](O)c2ccc(O)c(NS(C)(=O)=O)c2)c2ccccc21 | 168
28 | N#Cc1cc2ccc(OCC3CO3)cc2o1 (stereo not drawn) | 90 to 92
29 | OC(CCN1CC=C(c2ccc(Cl)cc2)CC1)c1ccc(F)cc1 (stereo not drawn) | 130 to 132
30 | Nc1ccc2nc3c(nc2c1)CCCC3 | 150 to 152
31 | CC(=O)NC1CCc2c(C)cc(C)c(O)c21 (stereo not drawn) | 131 to 132
32 | CNC(=S)NCCS(=O)Cc1cncn1C (stereo not drawn) | 139 to 140
33 | Fc1ccc(C=Cc2ccc(C3COC(c4c(F)cccc4F)=N3)cc2)cc1 (stereo not drawn) | 154 to 156
34 | Cc1cc(CCc2cc(O)c(=O)[nH]n2)ccc1C(F)(F)F | 174 to 175
35 | COC(=O)C(NS(=O)(=O)c1ccc(-c2ccc(NC(=O)c3cc4c(OC(C)C)cccc4o3)cc2)cc1)C(C)C (stereo not drawn) | 226 to 229

The next lines start with the values.

Row | melting point [°C] | SMILES
36 | 130 to 132 | CS(=O)(=O)c1ccc(-c2cc(=O)n(CC3CC3)nc2-c2ccc(F)cc2)cc1
37 | 123 to 124 | COc1ccc2c(c1)cc(C=O)n2S(=O)(=O)c1ccccc1
38 | 166 to 168 | Cn1c(COc2ccc(CC3SC(=O)NC3=O)cc2)nc2ccc(Sc3ccccc3)nc21 (stereo not drawn)
39 | 98 to 101 | COC(=O)c1ccc2nc(C)ccc2c1
40 | 91 to 93 | CC(C)(C)C(=O)Oc1ccc(CNC(=O)c2cccnc2Oc2ccc(F)cc2)cc1
41 | 202 to 203 | O=C(O)C1CCc2sc3ccccc3c2C1 (stereo not drawn)
42 | 129 to 134 | Cn1cc(C(=O)NCc2ccc(Cl)cc2)c(=O)c2cc(CN3CCOC[C@@H]3[C@H](O)c3ccccc3)sc21
43 | 185 to 187 | COc1cc(C)nc(NC(=O)NS(=O)(=O)c2ccccc2C(=O)Nc2nccs2)n1
44 | 125 to 126 | CC(C)(C)C(=O)Oc1ccc2c3c(cnc2c1)CCCC3O[Si](C)(C)C(C)(C)C (stereo not drawn)
45 | 221 to 223 | C=C(C)c1nnc(-c2cc3c([nH]c2=O)CCN(Cc2ccccc2)C3)o1
46 | 169 to 171 | CCOC(=O)C(=CNc1cc(C)nc(-c2ccncc2)n1)C(=O)OCC
47 | 210 to 215 | O=P(O)(O)CSc1nc2cc(Cl)c(C#Cc3ccccc3)cc2[nH]1
48 | 160 to 165 | COc1ccccc1C1(O)C(O)CC(C)(C)C2CN(C(=O)Cc3c[nH]c4ccccc34)CC21 (stereo not drawn)
49 | 71.8 | CCOC(=O)c1cc(C)nc2c(O)cccc12
50 | 193 to 195 | CC1(C)Nc2ccccc2-c2c([N+](=O)[O-])cnn21
51 | 91 to 93 | O=C(c1cccnc1)N1N=CCC1c1ccco1 (stereo not drawn)
52 | 215 to 218 | CC1(C)CC(=O)c2c(SCc3ccccc3)sc(-c3cc[nH]n3)c2C1
53 | 250 to 260 | Nc1nc2cccnc2c2c1nc(O)n2CC1CCOCC1
54 | 136 to 138 | CC(C)(C)OC(=O)N1C(=O)O[C@@H](c2cccc(Cl)c2)[C@H]1Cc1ccc(CC(F)(F)C(F)(F)F)cc1 (racemic)

Row | melting point [°C] | SMILES
55 | 230 to 232 | O=C(Cn1c(-c2ccc(Br)cc2)nc2cccnc21)Nc1ccccc1Cl
56 | 210 | Cc1cn(C)c2ccc(NC(=O)Nc3cccnc3)cc12
57 | 120 to 122 | O=c1c2cccnc2c(-c2cccc(Cl)c2)cn1CC1CC1
58 | 222 | Cc1cc(-c2ccc(C(F)(F)F)c(C)c2)nc(-c2cccc(-c3cccc(S(N)(=O)=O)c3)c2)n1
59 | 214 to 216 | CN=C(N)Nc1nc(-c2cccc(C(=O)NCCN)c2)cs1
60 | 145 to 147 | N#Cc1ccc(CNC(=O)c2cccc(C#CCn3ccnn3)c2)cc1
61 | 100 to 102 | CC(C)Nc1ccc(NC(=O)C2(C)CC2)cc1C(F)(F)F
62 | 145 to 146 | COc1cccc(Cn2cc3c(-c4cccc(C(=O)NCCC#N)c4)cccc3n2)n1
63 | 142 to 143 | CCOCc1nc2c(N)nc3cc(-c4ccccc4)ccc3c2n1CC1CCNCC1
64 | 186 to 187 | Cc1ccc(C(=O)NNc2ccc(NC(=S)Nc3ccccc3)cc2)cc1
65 | 110 to 111 | Cc1nccn1-c1nc(-c2ccc(Cl)cc2)c(CCCCO)o1
66 | 104 to 107 | CN(C(c1ccccc1)c1ccccc1)S(=O)(=O)CC#N
67 | 44 to 46 | Cc1ncsc1C(O)c1ccoc1 (stereo not drawn)
68 | 100 to 103 | O=C(Nc1ccc(F)cc1)c1ccccn1
69 | 169 to 172 | N#Cc1ccc(NC(=O)CCc2ccc(O)cc2)cc1
70 | 210 to 214 | O=C(O)c1ccc(C(=O)N2Cc3cccn3Cc3ccccc32)cc1
71 | 180 to 210 | CCOC(=O)C(C#N)=Cc1ccc([N+](=O)[O-])cc1C
72 | 171 to 173 | COc1cccc2c(Nc3ccccc3C)c(C(C)=O)cnc12
73 | 164 to 169 | NC(=O)[C@H]1CN(c2ccc(C3=CCOCC3)c(F)c2)C(=O)O1
